Experimental data as given in the supplement of paper PMC10307832.

How the values were obtained:
VX-702 = compound: NC(=O)c1ccc(N(C(N)=O)c2c(F)cccc2F)nc1-c1ccc(F)cc1F [VX-702]; experiment: relative viability (nuclei count vs DMSO), 5 days (fraction); higher = more cells survive
Outline: (§1)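 Lung cancer cell lines in 1536-well plates were kept overnight at 37 °C, then pinned with five library-drug doses (not always all listed) spaced by √10 on vehicle-anchored plates. After 5 days without medium change, cells were fixed, permeabilised and Hoechst-stained in one step, imaged at 4×, and nuclei were counted with MetaXpress. Viability is treated-well nuclei divided by vehicle-well nuclei, taken as the median over plates. Plates passed only with control CV below 25% and at least one doubling.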

Dabrafenib = compound: CC(C)(C)c1nc(-c2cccc(NS(=O)(=O)c3c(F)cccc3F)c2F)c(-c2ccnc(N)n2)s1 [Dabrafenib]; experiment: as above
Outline: as §1

Q: What does the source list for SW 900?
A: relative viability (VX-702; 0.02 µM): 0.885; relative viability (VX-702; 0.2 µM): 0.82; relative viability (VX-702; 0.6325 µM): 0.775; relative viability (VX-702; 2 µM): 1.02; relative viability (Dabrafenib; 0.009487 µM): 0.84; relative viability (Dabrafenib; 0.03 µM): 0.589; relative viability (Dabrafenib; 0.09487 µM): 0.665; relative viability (Dabrafenib; 0.3 µM): 1.02
